Assays:
hair growth = assay: Inhibition of hair growth (hair mass, treated vs untreated site); assay type: in vivo, hamster
[1] = Percent reduction in hair shaft cysteine (amino acid analysis of hamster flank organ hairs); assay type: in vivo; set-up: concentration or dose not given beside the values
[2] = Reduction of cystine (generation of cysteine on incubation with cystine, HPLC); details: 37 C, pH 7.4
[3] = Formation of cysteine-mixed disulfide in vitro (incubation with cystine or cysteine, HPLC); details: pH 7.4, 37° C.
[4] = Formation of cysteine-mixed disulfide in hair shafts after topical treatment; assay type: in vivo, Golden Syrian hamsters; details: thirteen topical treatments over 18 days, flank organ

## O=C(O)CCSCCC(=O)O [3,3′-Thiodipropionic acid]
Hair growth; Dose 20%, Vehicle A, topical
  Hair Mass Percent Reduction: 73 ± 4%
  Hair Mass Treated: 0.76 ± 0.12 mg

## O=C(O)CCCCC1CCSS1 (racemic) [DL-α-Lipoic acid (reduced form), DL-α-Lipoic acid]
Hair growth; Dose 5%, Vehicle B, topical
  Hair Mass Percent Reduction: 16 ± 5%
  Hair Mass Treated: 2.67 ± 0.26 mg
Hair growth; Dose 15%, Vehicle A, topical
  Hair Mass Percent Reduction: 56 ± 6%
  Hair Mass Treated: 0.74 ± 0.09 mg

## CC(=O)N[C@@H](CS)C(=O)O [N-Acetyl-L-Cysteine, reference compound]
Hair growth; Dose 15%, Vehicle A, topical
  Hair Mass Percent Reduction: 80 ± 4%
  Hair Mass Treated: 0.39 ± 0.07 mg

## O=C(O)c1cc(/N=N/c2ccc(S(=O)(=O)Nc3ccccn3)cc2)ccc1O [Sulfasalazine, reference compound]
[1]; hamster flank organ hairs
  Percent reduction in hair shaft cysteine: (−2%)
Hair growth; Dose 20%, Vehicle C, topical
  Hair Mass Percent Reduction: 61 ± 6%
  Hair Mass Treated: 0.88 ± 0.14 mg

## C[C@H](CS)C(=O)N1CCC[C@H]1C(=O)O [Captopril, reference compound]
[2]
  Reduction of Cystine: YES
[1]; hamster flank organ hairs
  Percent reduction in hair shaft cysteine: 26%
Hair growth; Dose 10%, Vehicle A, topical
  Hair Mass Percent Reduction: 57 ± 5%
  Hair Mass Treated: 1.49 ± 0.20 mg
[3]
  Formation of Cysteine mixed disulfide in-vitro: YES

## NCCS [2-Mercaptoethylamine (Cysteamine), 2-Mercaptoethylamine, reference compound]
[2]
  Reduction of Cystine: YES
[1]; hamster flank organ hairs
  Percent reduction in hair shaft cysteine: 50%
Hair growth; Dose 20%, Vehicle A, topical
  Hair Mass Percent Reduction: 86 ± 3%
  Hair Mass Treated: 0.30 ± 0.09 mg
[3]
  Formation of Cysteine mixed disulfide in-vitro: YES
[4]
  Formation of Cysteine mixed disulfide in hair shaft: YES

## CC(C)(S)[C@@H](N)C(=O)O [D-Penicillamine, reference compound]
[1]; hamster flank organ hairs
  Percent reduction in hair shaft cysteine: 50%
Hair growth; Dose 15%, Vehicle A, topical
  Hair Mass Percent Reduction: 65 ± 5%
  Hair Mass Treated: 0.57 ± 0.07 mg
[3]
  Formation of Cysteine mixed disulfide in-vitro: YES
[4]
  Formation of Cysteine mixed disulfide in hair shaft: YES

## O=S(=O)(O)CCO [Isethionic acid]
Hair growth; Dose 15%, Vehicle A, topical
  Hair Mass Percent Reduction: 50 ± 7%
  Hair Mass Treated: 1.45 ± 0.22 mg

## NCCSC[C@H](N)C(=O)O [S-2-Aminoethyl-L-cysteine]
Hair growth; Dose 20%, Vehicle A, topical
  Hair Mass Percent Reduction: 50 ± 11%
  Hair Mass Treated: 0.99 ± 0.20 mg

## CCN(CC)C(=S)S [Diethyldithiocarbamic acid]
[1]; hamster flank organ hairs
  Percent reduction in hair shaft cysteine: 18%
Hair growth; Dose 15%, Vehicle A, topical
  Hair Mass Percent Reduction: 68 ± 7%
  Hair Mass Treated: 0.65 ± 0.09 mg

## O=C(O)CCCSSCCCC(=O)O [3-Carboxypropyl disulfide]
Hair growth; Dose 15%, Vehicle A, topical
  Hair Mass Percent Reduction: 74 ± 4%
  Hair Mass Treated: 0.70 ± 0.14 mg

## CC(C)(SSC(C)(C)[C@@H](N)C(=O)O)[C@@H](N)C(=O)O [D-Penicillamine disulfide]
Hair growth; Dose 15%, Vehicle A, topical
  Hair Mass Percent Reduction: 55 ± 4%
  Hair Mass Treated: 1.09 ± 0.23 mg

## C=CCSCC=C [Allyl sulfide]
Hair growth; Dose 20%, Vehicle B, topical
  Hair Mass Percent Reduction: 17 ± 10%
  Hair Mass Treated: 1.74 ± 0.16 mg

## CCOC(=O)[C@@H](N)CS [L-Cysteine ethyl ester]
Hair growth; Dose 20%, Vehicle A, topical
  Hair Mass Percent Reduction: 82 ± 3%
  Hair Mass Treated: 0.49 ± 0.08 mg

## CCCCCCCCCCCCOC(=O)CCSCCC(=O)OCCCCCCCCCCCC [3,3′-Thiodipropionic acid dilauryl ester]
Hair growth; Dose 5%, Vehicle D, topical
  Hair Mass Percent Reduction: 30 ± 7%
  Hair Mass Treated: 1.70 ± 0.21 mg
Hair growth; Dose 20%, Vehicle D, topical
  Hair Mass Percent Reduction: 50 ± 4%
  Hair Mass Treated: 1.07 ± 0.10 mg

## O=C(O)c1ccccc1S [Thiosalicylic acid]
[1]; hamster, in vivo
  Percent reduction in hair shaft cysteine: 14%
Hair growth; hamster, in vivo
  Hair Mass Percent Reduction: 89 ± 2%
  Hair Mass Treated: 0.18 ± 0.04 mg

## 5′-Deoxy-5′-methylthioadenosine
[1]; hamster flank organ hairs
  Percent reduction in hair shaft cysteine: 11%
Hair growth; Dose 10%, Vehicle A, topical
  Hair Mass Percent Reduction: 57 ± 6%
  Hair Mass Treated: 1.25 ± 0.17 mg

## O=S(=O)(O)CC(S)CS (stereo not shown) [2,3,-Dimercapto-1-propanesulfonic acid]
[2]
  Reduction of Cystine: YES
[1]; hamster flank organ hairs
  Percent reduction in hair shaft cysteine: 40%
Hair growth; Dose 20%, Vehicle A, topical
  Hair Mass Percent Reduction: 79 ± 3%
  Hair Mass Treated: 0.64 ± 0.08 mg
[3]
  Formation of Cysteine mixed disulfide in-vitro: YES

## N[C@H](CS)C(=O)O [D-Cysteine]
Hair growth; Dose 10%, Vehicle A, topical
  Hair Mass Percent Reduction: 60 ± 3%
  Hair Mass Treated: 1.20 ± 0.17 mg

## N[C@@H](CS)C(=O)NCC(=O)O [Cystenyl-glycine]
[2]
  Reduction of Cystine: YES
Hair growth; Dose 15%, Vehicle A, topical
  Hair Mass Percent Reduction: 55 ± 8%
  Hair Mass Treated: 0.93 ± 0.18 mg

## COC(=O)[C@@H](N)CS [L-Cysteine methyl ester]
Hair growth; Dose 20%, Vehicle A, topical
  Hair Mass Percent Reduction: 86 ± 3%
  Hair Mass Treated: 0.28 ± 0.07 mg

## CSCCCN [3-(Methylthio)-propylamine]
Hair growth; Dose 2%, Vehicle A, topical
  Hair Mass Percent Reduction: 22 ± 13%
  Hair Mass Treated: 0.97 ± 0.13 mg

## O=C(O)[C@@H](S)[C@@H](S)C(=O)O [meso-2,3,-Dimercaptosuccinic acid]
[2]
  Reduction of Cystine: YES
[1]; hamster flank organ hairs
  Percent reduction in hair shaft cysteine: 22%
Hair growth; Dose 20%, Vehicle C, topical
  Hair Mass Percent Reduction: 50 ± 5%
  Hair Mass Treated: 1.08 ± 0.16 mg
